{"source": "patent US11707516B2", "about": "“Method for producing artificial recombinant rotavirus” (Osaka University, priority 2016, dated 2023)", "test_system": "luciferase-expressing artificial recombinant rotavirus", "experiment": "Screening test for anti-rotavirus drug using luciferase-expressing rotavirus in CV-1 cells (luminescence)", "type": "cell-based, simian rotavirus", "protocol": "CV-1 cells were seeded on 96-well culture plates at 1×10^5 cells/well on the previous day of infection. The CV-1 cells were infected with wild-type SA11 or the luciferase-expressing artificial recombinant rotavirus produced in Example 4 at an MOI of 0.001. After viral adsorption at 37° C. for 1 hour, the culture supernatant was removed, and DMEM (without FBS and with 0.5 μg/mL trypsin) containing 0, 1, 5, 10, 50, 100 or 200 μM ribavirin (Sigma-Aldrich) was added. Incubation was performed at 37° C. for 14 hours. After that, the substrate stock solution of Nano-Glo Luciferase Assay System (trade name, Promega) was added to the culture medium, and luminescence was detected with an in vivo imaging system (IVIS Spectrum, manufactured by Xenogen)."}
{"smiles": "NC(=O)c1ncn([C@@H]2O[C@H](CO)[C@@H](O)[C@H]2O)n1", "note": "[ribavirin]", "values": [{"measurement": "luminescence intensity (viral proliferation inhibitory effect)", "setting": "MOI of 0.001, 0, 1, 5, 10, 50, 100 or 200 μM ribavirin, 14 hours", "value": "decreased in a ribavirin concentration-dependent manner"}, {"measurement": "ribavirin concentration at which no luminescence was observed", "setting": "MOI of 0.001, 14 hours", "value": "≥ 50", "unit": "µM"}]}
